For experiment [1], the system named is TNF-stimulated IL8 production by human neutrophils. As to the kind of experiment: TNF-stimulated IL-8 production from human neutrophils.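 Also: IL-8 in cell-free supernatant quantified by sandwich ELISA, inhibition calculated against a compound-free control.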 The format is cell-based. Particulars: Neutrophil, TNF 100 ng/ml, about 20 hrs, bounds reflect the top concentration screened, for 202(c) and 120 a range over multiple runs with ends given as 'greater than'.
Experiment [2] relates to influx of neutrophils to the lung in LPS-challenged rats. The experiment can be described thus: Rat LPS neutrophilia model. The format is in vivo. To be noted: LPS aerosol, intratracheal dosing, in at least one of the range of conditions tested, significance p<0.05. The gist of the method:
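Compound given intratracheally (200 ul suspension or dry powder via microsprayer) to isoflurane-anesthetized rats 15 min–24 h before 15 min LPS aerosol (100 ug/ml). Lavage 4 h post-challenge; neutrophils from differential counts. % inhibition versus no-compound controls at a given concentration and pretreat time.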

The source of these data is US20100144755A1 (Glaxo Group Limited, priority 2006, published 2010).

Usually IC50 stands for the concentration needed to halve the response being measured.

In experiment [1], `Cc1ccc(NC(=O)c2cccs2)cc1-c1nc(S(C)(=O)=O)nc2c1ccc(=O)n2-c1c(F)cccc1F` [7(c), N-{3-[8-(2,6-difluorophenyl)-2-(methylsulfonyl)-7-oxo-7,8-dihydropyrido[2,3-d]pyrimidin-4-yl]-4-methylphenyl}-2-thiophenecarboxamide] returned an IC50 of more than 100 nM.
Still for that read-out and setting: for `Cc1ccc(NC(=O)c2cccs2)cc1-c1nc(NC2CCNCC2)nc2c1ccc(=O)n2-c1c(F)cccc1F` [7(d), N-{3-[8-(2,6-difluorophenyl)-7-oxo-2-(4-piperidinylamino)-7,8-dihydropyrido[2,3-d]pyrimidin-4-yl]-4-methylphenyl}-2-thiophenecarboxamide] the value was more than 100 nM; for `Cc1cc(C(=O)Nc2ccc(C)c(-c3nc(NC4CCNCC4)nc4c3ccc(=O)n4-c3c(F)cccc3F)c2)ccc1F` [12(c), N-{3-[8-(2,6-difluorophenyl)-7-oxo-2-(4-piperidinylamino)-7,8-dihydropyrido[2,3-d]pyrimidin-4-yl]-4-methylphenyl}-4-fluoro-3-methylbenzamide], more than 100 nM.
The same measure, in the same setting: for `Cc1ccc(NC(=O)c2ccc(Cl)nc2)cc1-c1nc(NC2CCNCC2)nc2c1ccc(=O)n2-c1c(F)cccc1F` [14(c), 6-chloro-N-{3-[8-(2,6-difluorophenyl)-7-oxo-2-(4-piperidinylamino)-7,8-dihydropyrido[2,3-d]pyrimidin-4-yl]-4-methylphenyl}-3-pyridinecarboxamide] the value was more than 100 nM; for `Cc1ccc(C(=O)O)cc1-c1nc(NC(CO)CO)nc2c1ccc(=O)n2-c1c(F)cccc1F` [80(a), 3-(8-(2,6-difluorophenyl)-2-{[2-hydroxy-1-(hydroxymethyl)-ethyl]amino}-7-oxo-7,8-dihydropyrido[2,3-d]pyrimidin-4-yl)-4-methylbenzoic acid], more than 100 nM; for `Cc1ccc(C(=O)NCc2ccccc2)cc1-c1nc([S+](C)[O-])nc2c1ccc(=O)n2-c1c(F)cccc1F` (stereo not shown) [116(b), 3-[8-(2,6-difluorophenyl)-2-(methylsulfinyl)-7-oxo-7,8-dihydropyrido[2,3-d]pyrimidin-4-yl]-4-methyl-N-(phenylmethyl)benzamide], more than 100 nM.
The same measure, in the same setting: under `CCN(CC)CCCNc1nc(-c2cc(C(=O)O)ccc2C)c2ccc(=O)n(-c3c(F)cccc3F)c2n1` [118(a), 3-[2-{[3-(diethylamino)propyl]amino}-8-(2,6-difluorophenyl)-7-oxo-7,8-dihydropyrido[2,3-d]pyrimidin-4-yl]-4-methylbenzoic acid] stands more than 100 nM; under `Cc1ccc(C(=O)O)cc1-c1nc(N2CCC(N3CCC(C)CC3)CC2)nc2c1ccc(=O)n2-c1c(F)cccc1F` [163(b), 3-[8-(2,6-difluorophenyl)-2-(4-methyl-1,4′-bipiperidin-1′-yl)-7-oxo-7,8-dihydropyrido[2,3-d]pyrimidin-4-yl]-4-methylbenzoic acid], more than 100 nM; under `CCCNC(=O)c1ccc(-c2nc(NCCCN(CC)CC)nc3c2ccc(=O)n3-c2c(F)cccc2F)cc1` [188(b), 4-[2-{[3-(diethylamino)propyl]amino}-8-(2,6-difluorophenyl)-7-oxo-7,8-dihydropyrido[2,3-d]pyrimidin-4-yl]-N-propylbenzamide], more than 100 nM.
`CCN(CC)CCCNc1nc(-c2cccc(C(=O)O)c2)c2ccc(=O)n(-c3c(F)cccc3F)c2n1` [193(a), 3-[2-{[3-(diethylamino)propyl]amino}-8-(2,6-difluorophenyl)-7-oxo-7,8-dihydropyrido[2,3-d]pyrimidin-4-yl]benzoic acid] yielded an IC50 in experiment [1] of more than 100 nM.
The same measure, in the same setting: for `Cc1ccc(C(=O)NCCc2ccccc2)cc1-c1nc(NCCN(C)C(=O)OC(C)(C)C)nc2c1ccc(=O)n2-c1c(F)cccc1F` [202(c), 1,1-dimethylethyl(2-{[8-(2,6-difluorophenyl)-4-(2-methyl-5-{[(2-phenylethyl)amino]carbonyl}phenyl)-7-oxo-7,8-dihydropyrido[2,3-d]pyrimidin-2-yl]amino}ethyl)methylcarbamate] the value was 10 to 100 nM.
For the molecule `Cc1ccc(NC(=O)c2cccs2)cc1-c1nc(NCc2ncc[nH]2)nc2c1ccc(=O)n2-c1c(F)cccc1F` [Example 10, N-(3-{8-(2,6-difluorophenyl)-2-[(1H-imidazol-2-ylmethyl)amino]-7-oxo-7,8-dihydropyrido[2,3-d]pyrimidin-4-yl}-4-methylphenyl)-2-thiophenecarboxamide], in experiment [1], the IC50 was more than 100 nM.
On to `CNCCNc1nc(-c2cc(NC(=O)c3cccs3)ccc2C)c2ccc(=O)n(-c3c(F)cccc3F)c2n1` [Example 11, N-[3-(8-(2,6-difluorophenyl)-2-{[2-(methylamino)ethyl]amino}-7-oxo-7,8-dihydropyrido[2,3-d]pyrimidin-4-yl)-4-methylphenyl]-2-thiophenecarboxamide], for which the IC50 in experiment [1] is more than 100 nM.
On the same count and under the same terms, under `Cc1ccc(NC(=O)c2ccc(Cl)nc2)cc1-c1nc(N2CCC(N)CC2)nc2c1ccc(=O)n2-c1c(F)cccc1F` [Example 15, N-{3-[2-(4-amino-1-piperidinyl)-8-(2,6-difluorophenyl)-7-oxo-7,8-dihydropyrido[2,3-d]pyrimidin-4-yl]-4-methylphenyl}-6-chloro-3-pyridinecarboxamide] stands more than 100 nM; under `Cc1ccc(NC(=O)c2ccc(Cl)nc2)cc1-c1nc(NC2CC(C)(C)NC(C)(C)C2)nc2c1ccc(=O)n2-c1c(F)cccc1F` [Example 16, 6-chloro-N-(3-{8-(2,6-difluorophenyl)-7-oxo-2-[(2,2,6,6-tetramethyl-4-piperidinyl)amino]-7,8-dihydropyrido[2,3-d]pyrimidin-4-yl}-4-methylphenyl]-3-pyridinecarboxamide], more than 100 nM.
The same measure, in the same setting: under `Cc1ccc(NC(=O)c2ccc(Cl)nc2)cc1-c1nc(NCc2ncc[nH]2)nc2c1ccc(=O)n2-c1c(F)cccc1F` [Example 17, 6-chloro-N-(3-{8-(2,6-difluorophenyl)-2-[(1H-imidazol-2-ylmethyl)amino]-7-oxo-7,8-dihydropyrido[2,3-d]pyrimidin-4-yl}-4-methylphenyl)-3-pyridinecarboxamide] stands more than 100 nM.
Regarding `Cc1ccc(C(=O)NC2CC2)cc1-c1nc(N2CCC(N3CCC(C)CC3)CC2)nc2c1ccc(=O)n2-c1c(F)cccc1F` [Example 178, N-cyclopropyl-3-[8-(2,6-difluorophenyl)-2-(4-methyl-1,4′-bipiperidin-1′-yl)-7-oxo-7,8-dihydropyrido[2,3-d]pyrimidin-4-yl]-4-methylbenzamide], the inhibition of neutrophilia result in experiment [2] is given as “statistically nonsignificant inhibition”.
For the molecule `CCCNC(=O)c1cc(F)c(C)c(-c2nc(NCCCN(CC)CC)nc3c2ccc(=O)n3-c2c(F)cccc2F)c1` [Example 181, 3-[2-{[3-(diethylamino)propyl]amino}-8-(2,6-difluorophenyl)-7-oxo-7,8-dihydropyrido[2,3-d]pyrimidin-4-yl]-5-fluoro-4-methyl-N-propylbenzamide], in experiment [2], the inhibition of neutrophilia result was “statistically nonsignificant inhibition”.
Still for that read-out and setting: for `CCN(CC)CCCNc1nc(-c2cc(C(=O)NC3CC3)cc(F)c2C)c2ccc(=O)n(-c3c(F)cccc3F)c2n1` [Example 185, N-cyclopropyl-3-[2-{[3-(diethylamino)propyl]amino}-8-(2,6-difluorophenyl)-7-oxo-7,8-dihydropyrido[2,3-d]pyrimidin-4-yl]-5-fluoro-4-methylbenzamide] the value was “statistically nonsignificant inhibition”.
